Experimental findings from US9340590B2 (priority 2011, dated 2016) are described below.

Molecules are shown by their SMILES. Read-outs that look alike come from different tables or passages of the source. Positions of bridges follow the written chain, without caps; N, C: chain ends. Non-standard residues stand in square brackets, D forms with d. Residues, ends and D or L forms follow the SMILES beside them. NMeW = CN[C@@H](Cc1c[nH]c2ccccc12)C(=O)O

Assay in all cases: cell-based
One assay concerns the target hNav1.5 (Homo sapiens, UniProt Q14524).
The target in the next assay is hNav1.3 (Homo sapiens, UniProt Q9NY46). As to conditions: IonWorks Quattro, read-out: IWQ Use Nav1.3. (In patch-clamp work, channel activity is measured electrically.)
Sequence of hNav1.3 (Q9NY46 whole entry, looked up): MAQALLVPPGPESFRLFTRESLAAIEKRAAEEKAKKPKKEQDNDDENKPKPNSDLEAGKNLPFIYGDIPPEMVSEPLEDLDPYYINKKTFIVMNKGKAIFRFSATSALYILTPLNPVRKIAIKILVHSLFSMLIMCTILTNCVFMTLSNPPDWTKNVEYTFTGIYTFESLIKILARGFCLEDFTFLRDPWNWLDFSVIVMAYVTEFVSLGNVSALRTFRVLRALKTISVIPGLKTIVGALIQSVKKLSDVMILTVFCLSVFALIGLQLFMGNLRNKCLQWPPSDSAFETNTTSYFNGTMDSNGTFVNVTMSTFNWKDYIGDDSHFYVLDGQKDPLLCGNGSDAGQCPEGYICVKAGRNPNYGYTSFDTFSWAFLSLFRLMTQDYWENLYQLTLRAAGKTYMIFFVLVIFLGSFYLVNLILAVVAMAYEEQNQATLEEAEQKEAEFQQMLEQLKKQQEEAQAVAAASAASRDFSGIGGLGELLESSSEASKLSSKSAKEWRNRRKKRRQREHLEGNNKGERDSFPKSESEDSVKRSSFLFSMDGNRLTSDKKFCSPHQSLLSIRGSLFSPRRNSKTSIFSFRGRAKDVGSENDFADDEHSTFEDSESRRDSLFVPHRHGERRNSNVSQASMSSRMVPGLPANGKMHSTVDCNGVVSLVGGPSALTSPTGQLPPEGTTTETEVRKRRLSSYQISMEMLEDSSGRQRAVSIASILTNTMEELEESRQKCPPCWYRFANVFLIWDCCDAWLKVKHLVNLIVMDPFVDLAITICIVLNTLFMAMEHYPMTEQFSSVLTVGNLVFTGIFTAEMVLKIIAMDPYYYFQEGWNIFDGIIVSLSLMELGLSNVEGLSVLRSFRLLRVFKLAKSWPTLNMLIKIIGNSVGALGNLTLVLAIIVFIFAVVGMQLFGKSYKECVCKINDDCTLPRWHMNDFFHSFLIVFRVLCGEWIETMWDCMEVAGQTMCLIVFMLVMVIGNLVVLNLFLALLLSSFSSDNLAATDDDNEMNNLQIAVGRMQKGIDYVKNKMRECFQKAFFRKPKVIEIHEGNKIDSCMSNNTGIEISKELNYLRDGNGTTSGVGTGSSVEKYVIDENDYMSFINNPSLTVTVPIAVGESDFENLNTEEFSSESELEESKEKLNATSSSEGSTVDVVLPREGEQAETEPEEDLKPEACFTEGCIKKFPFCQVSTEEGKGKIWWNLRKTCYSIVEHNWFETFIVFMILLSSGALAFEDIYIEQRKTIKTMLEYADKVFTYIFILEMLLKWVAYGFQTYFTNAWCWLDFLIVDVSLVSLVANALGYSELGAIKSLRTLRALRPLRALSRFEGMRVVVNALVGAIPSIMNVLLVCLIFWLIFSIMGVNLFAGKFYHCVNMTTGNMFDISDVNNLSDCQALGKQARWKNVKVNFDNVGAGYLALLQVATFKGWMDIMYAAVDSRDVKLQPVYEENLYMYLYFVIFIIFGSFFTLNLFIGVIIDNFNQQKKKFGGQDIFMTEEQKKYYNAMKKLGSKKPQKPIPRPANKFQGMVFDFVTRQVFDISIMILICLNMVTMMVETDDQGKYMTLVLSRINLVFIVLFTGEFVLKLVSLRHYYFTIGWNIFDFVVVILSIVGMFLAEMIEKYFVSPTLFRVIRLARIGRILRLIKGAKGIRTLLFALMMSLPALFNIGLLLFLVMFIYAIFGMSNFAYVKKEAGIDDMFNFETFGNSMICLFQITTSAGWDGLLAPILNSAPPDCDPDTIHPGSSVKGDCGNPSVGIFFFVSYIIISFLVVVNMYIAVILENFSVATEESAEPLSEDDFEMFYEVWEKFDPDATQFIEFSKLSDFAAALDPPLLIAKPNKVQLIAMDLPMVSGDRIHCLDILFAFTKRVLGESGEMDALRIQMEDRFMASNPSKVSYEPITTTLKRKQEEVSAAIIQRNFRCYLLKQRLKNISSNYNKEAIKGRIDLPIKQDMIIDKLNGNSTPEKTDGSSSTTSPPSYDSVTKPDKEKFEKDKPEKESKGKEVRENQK
The target of a further assay is hNav1.7 (Homo sapiens, UniProt Q15858). The class given is cell-based. Conditions: IonWorks Quattro, read-out: IWQ Use Nav1.7.
Sequence of hNav1.7 (Q15858 whole entry, looked up): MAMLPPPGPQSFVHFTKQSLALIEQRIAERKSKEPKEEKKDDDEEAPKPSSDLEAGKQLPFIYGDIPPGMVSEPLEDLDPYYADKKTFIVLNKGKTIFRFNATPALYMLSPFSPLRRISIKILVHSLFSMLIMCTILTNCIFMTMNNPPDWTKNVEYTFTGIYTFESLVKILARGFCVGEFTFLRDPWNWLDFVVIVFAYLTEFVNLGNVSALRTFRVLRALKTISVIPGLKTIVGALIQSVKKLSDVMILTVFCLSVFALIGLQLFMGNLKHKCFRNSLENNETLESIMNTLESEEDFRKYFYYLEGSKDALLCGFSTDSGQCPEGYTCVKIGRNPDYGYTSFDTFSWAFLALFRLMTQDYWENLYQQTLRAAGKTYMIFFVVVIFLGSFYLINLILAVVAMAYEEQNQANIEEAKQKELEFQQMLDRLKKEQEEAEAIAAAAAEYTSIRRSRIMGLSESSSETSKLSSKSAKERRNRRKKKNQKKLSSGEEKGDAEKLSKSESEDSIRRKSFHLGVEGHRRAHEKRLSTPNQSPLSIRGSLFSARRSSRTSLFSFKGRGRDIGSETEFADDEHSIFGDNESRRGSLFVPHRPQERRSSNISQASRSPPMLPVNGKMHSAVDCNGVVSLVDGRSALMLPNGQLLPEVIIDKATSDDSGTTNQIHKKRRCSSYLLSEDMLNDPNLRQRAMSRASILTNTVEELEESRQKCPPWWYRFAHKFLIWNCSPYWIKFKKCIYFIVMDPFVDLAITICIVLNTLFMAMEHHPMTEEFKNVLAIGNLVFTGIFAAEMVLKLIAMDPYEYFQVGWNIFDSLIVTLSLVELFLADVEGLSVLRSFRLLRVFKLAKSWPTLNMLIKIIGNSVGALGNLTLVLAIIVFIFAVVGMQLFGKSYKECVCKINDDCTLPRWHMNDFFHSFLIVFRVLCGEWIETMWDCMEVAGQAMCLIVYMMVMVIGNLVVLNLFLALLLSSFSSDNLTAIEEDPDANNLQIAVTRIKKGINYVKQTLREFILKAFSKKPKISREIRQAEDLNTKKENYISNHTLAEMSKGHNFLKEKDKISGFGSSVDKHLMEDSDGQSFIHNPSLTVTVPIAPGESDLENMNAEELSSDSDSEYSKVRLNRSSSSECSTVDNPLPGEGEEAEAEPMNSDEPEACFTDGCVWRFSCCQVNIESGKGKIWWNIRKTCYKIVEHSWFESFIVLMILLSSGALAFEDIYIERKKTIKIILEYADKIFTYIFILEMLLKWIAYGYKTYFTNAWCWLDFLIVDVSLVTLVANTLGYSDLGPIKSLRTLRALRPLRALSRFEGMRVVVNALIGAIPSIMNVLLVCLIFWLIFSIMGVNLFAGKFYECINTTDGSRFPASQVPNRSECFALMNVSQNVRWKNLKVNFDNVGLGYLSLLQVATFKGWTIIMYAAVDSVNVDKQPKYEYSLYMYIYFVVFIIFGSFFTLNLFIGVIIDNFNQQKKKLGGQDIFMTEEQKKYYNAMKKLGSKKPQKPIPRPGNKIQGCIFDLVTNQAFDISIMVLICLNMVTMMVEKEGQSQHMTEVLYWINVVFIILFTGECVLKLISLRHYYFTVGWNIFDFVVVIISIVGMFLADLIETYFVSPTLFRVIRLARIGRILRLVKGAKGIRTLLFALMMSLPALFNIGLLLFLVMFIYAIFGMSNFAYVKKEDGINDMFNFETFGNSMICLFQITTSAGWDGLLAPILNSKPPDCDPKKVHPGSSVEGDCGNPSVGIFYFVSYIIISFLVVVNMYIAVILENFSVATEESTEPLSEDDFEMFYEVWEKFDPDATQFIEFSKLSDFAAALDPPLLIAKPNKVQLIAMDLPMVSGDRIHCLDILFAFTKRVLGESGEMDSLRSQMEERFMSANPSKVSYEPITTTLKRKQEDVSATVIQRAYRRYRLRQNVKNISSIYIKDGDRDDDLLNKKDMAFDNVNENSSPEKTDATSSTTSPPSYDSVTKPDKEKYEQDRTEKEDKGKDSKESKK
Where [1] appears, read: IonWorks Quattro, use-dependent block, hNav1.5, read-out: IWQ Use Nav1.5.

With `CC[C@H](C)[C@@H]1NC(=O)[C@@H]2CSSC[C@@H]3NC(=O)[C@H](C(C)C)NC(=O)[C@H](CC(C)C)NC(=O)[C@H](CC(N)=O)NC(=O)[C@@H]4CCCN4C(=O)[C@H](CCCNC(=N)N)NC(=O)[C@H](CSSC[C@H](NC(=O)[C@@H](N)CC(=O)O)C(=O)N[C@@H](CC(C)C)C(=O)NCC(=O)N[C@@H](C)C(=O)N[C@@H](CC(C)C)C(=O)N[C@@H](CCCNC(=N)N)C(=O)N[C@@H](CCCCN)C(=O)N2)NC(=O)[C@H](CSSC[C@@H](C(=O)N[C@@H](CCCCN)C(=O)N[C@@H](Cc2ccc(O)cc2)C(=O)N[C@H](C(=O)N[C@@H](Cc2ccccc2)C(=O)O)C(C)C)NC(=O)[C@H](Cc2c[nH]c4ccccc24)NC(=O)[C@H](CCCNC(=N)N)NC(=O)[C@H](Cc2c[nH]cn2)NC(=O)[C@H]([C@@H](C)O)NC(=O)[C@H](CCCNC(=N)N)NC(=O)[C@H](CO)NC3=O)NC(=O)[C@H](CCCCN)NC(=O)[C@H](CC(=O)O)NC(=O)[C@H](CCC(=O)O)NC(=O)[C@H](CC(=O)O)NC(=O)[C@@H]2CCCN2C1=O` [compound 862] (H-DCLGALRKCIPDEDKCCRPNLVCSRTHRWCKYVF-OH; disulfide 2-17, 9-23, 16-30), the IC50 at hNav1.5 (setting [1]) is greater than 5 µM; at hNav1.3 (use-dependent block, hNav1.3) it was greater than 5000 nM; on hNav1.7 (use-dependent block, hNav1.7) it was greater than 5000 nM.

For `CC[C@H](C)[C@@H]1NC(=O)[C@@H]2CSSC[C@@H]3NC(=O)[C@H](C(C)C)NC(=O)[C@H](CC(C)C)NC(=O)[C@H](CC(N)=O)NC(=O)[C@@H]4CCCN4C(=O)[C@H](CCCNC(=N)N)NC(=O)[C@H](CSSC[C@H](NC(=O)[C@@H](N)CC(=O)O)C(=O)N[C@@H](CC(C)C)C(=O)NCC(=O)N[C@@H](Cc4ccccc4)C(=O)N[C@@H](CCSC)C(=O)N[C@@H](CCCNC(=N)N)C(=O)N[C@@H](CCCCN)C(=O)N2)NC(=O)[C@H](CSSC[C@@H](C(=O)N[C@@H](CCCCN)C(=O)N[C@@H](Cc2ccc(O)cc2)C(=O)N(C)[C@@H](Cc2c[nH]c4ccccc24)C(=O)N[C@@H](Cc2ccccc2)C(N)=O)NC(=O)[C@H](Cc2c[nH]c4ccccc24)NC(=O)[C@H](CCCCN)NC(=O)[C@H](Cc2c[nH]cn2)NC(=O)[C@H]([C@@H](C)O)NC(=O)[C@H](CCCNC(=N)N)NC(=O)[C@H](CO)NC3=O)NC(=O)[C@H](CCCCN)NC(=O)[C@H](CC(=O)O)NC(=O)[C@H](CC(N)=O)NC(=O)[C@H](CC(=O)O)NC(=O)[C@@H]2CCCN2C1=O` [compound 389] (H-DCLGFMRKCIPDNDKCCRPNLVCSRTHKWCKY[NMeW]F-NH2; disulfide 2-17, 9-23, 16-30), the IC50 on hNav1.5 (Table 26, IonWorks Quattro, use, […], read-out: IWQ Use Nav1.5) is greater than 5 µM; at hNav1.3 (Table 26, use, […]) it was 290 nM; on hNav1.7 (Table 26, use, […]), 350 nM.

In the case of `CC[C@H](C)[C@@H]1NC(=O)[C@@H]2CSSC[C@@H]3NC(=O)[C@H](C(C)C)NC(=O)[C@H](CC(C)C)NC(=O)[C@H](CC(N)=O)NC(=O)[C@@H]4CCCN4C(=O)[C@H](CCCNC(=N)N)NC(=O)[C@H](CSSC[C@H](NC(=O)[C@@H](N)CC(=O)O)C(=O)N[C@@H](CC(C)C)C(=O)NCC(=O)N[C@@H](C)C(=O)N[C@@H](Cc4ccccc4)C(=O)N[C@@H](CCCNC(=N)N)C(=O)N[C@@H](CCCCN)C(=O)N2)NC(=O)[C@H](CSSC[C@@H](C(=O)N[C@@H](CCCCN)C(=O)N[C@@H](Cc2ccc(O)cc2)C(=O)N[C@H](C(=O)N[C@@H](Cc2ccccc2)C(=O)O)C(C)C)NC(=O)[C@H](Cc2c[nH]c4ccccc24)NC(=O)[C@H](CCCNC(=N)N)NC(=O)[C@H](Cc2c[nH]cn2)NC(=O)[C@H]([C@@H](C)O)NC(=O)[C@H](CCCNC(=N)N)NC(=O)[C@H](CO)NC3=O)NC(=O)[C@H](CCCCN)NC(=O)[C@H](CC(=O)O)NC(=O)[C@H](Cc2ccc(O)cc2)NC(=O)[C@H](CC(=O)O)NC(=O)[C@@H]2CCCN2C1=O` [compound 597] (H-DCLGAFRKCIPDYDKCCRPNLVCSRTHRWCKYVF-OH; disulfide 2-17, 9-23, 16-30), the IC50 at hNav1.5 (setting [1]) is 7.35 µM; at hNav1.3 (use-dependent block, hNav1.3), 1100 nM; at hNav1.7 (use-dependent block, hNav1.7), greater than 5000 nM.

In the case of `CC[C@H](C)[C@@H]1NC(=O)[C@@H]2CSSC[C@@H]3NC(=O)[C@H](C(C)C)NC(=O)[C@H](CC(C)C)NC(=O)[C@H](CC(N)=O)NC(=O)[C@@H]4CCCN4C(=O)[C@H](CCCNC(=N)N)NC(=O)[C@H](CSSC[C@H](NC(=O)[C@@H](N)CC(=O)O)C(=O)N[C@@H](CC(C)C)C(=O)NCC(=O)N[C@@H](C)C(=O)N[C@@H](CCSC)C(=O)N[C@@H](CCCNC(=N)N)C(=O)N[C@@H](CCCCN)C(=O)N2)NC(=O)[C@H](CSSC[C@@H](C(=O)N[C@@H](CCCCN)C(=O)N[C@@H](Cc2ccc(O)cc2)C(=O)N[C@H](C(=O)N[C@@H](Cc2ccccc2)C(N)=O)C(C)C)NC(=O)[C@H](Cc2c[nH]c4ccccc24)NC(=O)[C@H](CC(C)C)NC(=O)[C@H](Cc2c[nH]cn2)NC(=O)[C@H]([C@@H](C)O)NC(=O)[C@H](CCCNC(=N)N)NC(=O)[C@H](CO)NC3=O)NC(=O)[C@H](CCCCN)NC(=O)[C@H](CC(=O)O)NC(=O)[C@H](CC(N)=O)NC(=O)[C@H](CC(=O)O)NC(=O)[C@@H]2CCCN2C1=O` [compound 766] (H-DCLGAMRKCIPDNDKCCRPNLVCSRTHLWCKYVF-NH2; disulfide 2-17, 9-23, 16-30), the IC50 is 49.3 µM on hNav1.5 (setting [1]); 2700 nM at hNav1.3 (use-dependent block, hNav1.3); 1100 nM at hNav1.7 (use-dependent block, hNav1.7).

As to `CC[C@H](C)[C@@H]1NC(=O)[C@@H]2CSSC[C@@H]3NC(=O)[C@H](C(C)C)NC(=O)[C@H](CC(C)C)NC(=O)[C@H](CC(N)=O)NC(=O)[C@@H]4CCCN4C(=O)[C@H](CCCNC(=N)N)NC(=O)[C@H](CSSC[C@H](NC(=O)[C@@H](N)CC(=O)O)C(=O)N[C@@H](CC(C)C)C(=O)NCC(=O)N[C@@H](Cc4ccccc4)C(=O)N[C@@H](CCSC)C(=O)N[C@@H](CCCNC(=N)N)C(=O)N[C@@H](CCCCN)C(=O)N2)NC(=O)[C@H](CSSC[C@@H](C(=O)N[C@@H](CCCCN)C(=O)N[C@@H](Cc2ccc(O)cc2)C(=O)N[C@H](C(=O)N[C@@H](Cc2ccccc2)C(N)=O)C(C)C)NC(=O)[C@H](Cc2c[nH]c4ccccc24)NC(=O)[C@H](CCCCN)NC(=O)[C@H](Cc2cnc[nH]2)NC(=O)[C@H]([C@@H](C)O)NC(=O)[C@H](CCCNC(=N)N)NC(=O)[C@H](CO)NC3=O)NC(=O)[C@H](CCCNC(=N)N)NC(=O)[C@H](CC(=O)O)NC(=O)[C@H](CC(N)=O)NC(=O)[C@H](CC(=O)O)NC(=O)[C@@H]2CCCN2C1=O` [compound 68] (H-DCLGFMRKCIPDNDRCCRPNLVCSRTHKWCKYVF-NH2; disulfide 2-17, 9-23, 16-30), the IC50 on hNav1.5 (IWQ Use Nav1.5 (μM)) was 18.1 µM; on hNav1.3 (Use) it was 140 nM; at hNav1.7 (Use) it was 200 nM.

In the case of `CC[C@H](C)[C@@H]1NC(=O)[C@@H]2CSSC[C@@H]3NC(=O)[C@H](C(C)C)NC(=O)[C@H](CC(C)C)NC(=O)[C@H](CC(N)=O)NC(=O)[C@@H]4CCCN4C(=O)[C@H](CCCNC(=N)N)NC(=O)[C@H](CSSC[C@H](NC(=O)[C@@H](N)CC(=O)O)C(=O)N[C@@H](CC(C)C)C(=O)NCC(=O)N[C@@H](Cc4ccccc4)C(=O)N[C@@H](CCSC)C(=O)N[C@@H](CCCNC(=N)N)C(=O)N[C@@H](CCCCN)C(=O)N2)NC(=O)[C@H](CSSC[C@@H](C(=O)N[C@@H](CCCCN)C(=O)N[C@H](C(=O)N[C@H](C(=O)N[C@@H](Cc2ccccc2)C(N)=O)C(C)C)C(C)C)NC(=O)[C@H](Cc2c[nH]c4ccccc24)NC(=O)[C@H](CCCCN)NC(=O)[C@H](Cc2c[nH]cn2)NC(=O)[C@H]([C@@H](C)O)NC(=O)[C@H](CCCNC(=N)N)NC(=O)[C@H](CO)NC3=O)NC(=O)[C@H](CCCCN)NC(=O)[C@H](CC(=O)O)NC(=O)[C@H](CC(N)=O)NC(=O)[C@H](CC(=O)O)NC(=O)[C@@H]2CCCN2C1=O` [compound 372] (H-DCLGFMRKCIPDNDKCCRPNLVCSRTHKWCKVVF-NH2; disulfide 2-17, 9-23, 16-30), the IC50 on hNav1.5 (Table 25, IonWorks Quattro, use, […], read-out: IWQ Use Nav1.5) worked out at 14.8 µM; on hNav1.3 (Table 25, use, […]) it was 80 nM; at hNav1.7 (Table 25, use, […]), 150 nM.

Consider `CC[C@H](C)[C@@H]1NC(=O)[C@@H]2CSSC[C@@H]3NC(=O)[C@H](C(C)C)NC(=O)[C@H](CC(C)C)NC(=O)[C@H](CC(N)=O)NC(=O)[C@@H]4CCCN4C(=O)[C@H](CCCNC(=N)N)NC(=O)[C@H](CSSC[C@H](NC(=O)[C@@H](N)CC(=O)O)C(=O)N[C@@H](CC(C)C)C(=O)NCC(=O)N[C@@H](C)C(=O)N[C@@H](CCSC)C(=O)N[C@@H](CCCNC(=N)N)C(=O)N[C@@H](CCCCN)C(=O)N2)NC(=O)[C@H](CSSC[C@@H](C(=O)N[C@@H](CCCCN)C(=O)N[C@@H](Cc2ccc(O)cc2)C(=O)N[C@H](C(=O)N[C@@H](Cc2ccccc2)C(N)=O)C(C)C)NC(=O)[C@H](Cc2c[nH]c4ccccc24)NC(=O)[C@H](CCCCN)NC(=O)[C@H](Cc2c[nH]cn2)NC(=O)[C@H]([C@@H](C)O)NC(=O)[C@H](CCCNC(=N)N)NC(=O)[C@H](CO)NC3=O)NC(=O)[C@H](CCCCN)NC(=O)[C@H](CC(=O)O)NC(=O)[C@H](CC(N)=O)NC(=O)[C@H](Cc2c[nH]c3ccccc23)NC(=O)[C@@H]2CCCN2C1=O` [compound 423] (H-DCLGAMRKCIPWNDKCCRPNLVCSRTHKWCKYVF-NH2; disulfide 2-17, 9-23, 16-30), for which the IC50 at hNav1.5 (setting [1]) is greater than 5 µM; at hNav1.3 (use-dependent block, hNav1.3) it was 1090 nM; on hNav1.7 (use-dependent block, hNav1.7) it was 430 nM.
